Laboratory results reported in paper PMC11061149, “Protein mimetic 2D FAST rescues alpha synuclein aggregation mediated early and post disease Parkinson’s phenotypes” (Nature Communications, 2024).
Values joined by “and” are separate entries in the source; they are usually repeats but may differ in a detail not shown here. Identical values can stand only once.

Tests used:
αS aggregation = target: T1, αS aggregation (Homo sapiens, UniProt P37840); test: SDS-PAGE gel shift assay of soluble and insoluble αS fractions; assay type: biochemical; conditions: for Total (αS, SDS-PAGE gel shift), Average: average of 3 trials
T1 construct: made in house; host or cells: E. coli BL21(DE3)
Source text: The inhibition of αS aggregation by NS41 was also confirmed by TEM images, which show an abundance (Supplementary Fig. 3a) and low amount (Supplementary Fig. 3b) of αS fibers in the absence and presence of NS41, respectively. We used SDS-PAGE (Sodium dodecyl sulfate polyacrylamide gel electrophoresis) as a complementary assay to validate ThT results and to further characterize the antagonist activity of the monopyridyls against αS aggregation. We used a total of four monopyridyls with varying antagonist activity against αS aggregation for the SDS-PAGE assay. The solutions of αS (±monopyridyls) were centrifuged and the soluble and insoluble fractions were subjected to SDS-PAGE analysis as reported earlier (Fig. 2d, Supplementary Fig. 4a, see details in methods section). The band intensities of the gels in SDS-PAGE assay were quantified using ImageJ software. In the absence of ligands, ~12% of αS was found in the soluble fraction and the rest was found in the insoluble fraction (Fig. 2d, Supplementary Fig. 4a, b). In the presence of NS41 at molar ratios of 1:1 and 2:1 (NS41:αS), 48% and 73% of αS protein were found in the soluble fraction, respectively, and the rest of αS protein was found in the insoluble fraction (Fig. 2d, Supplementary Fig. 4a, b). […] The antagonist activity of the monopyridyls corroborated well from both ThT and the SDS-PAGE assays (Fig. 2a–d, Supplementary Fig. 4a, b). The higher the antagonist activity of monopyridyls against αS aggregation, the lower the ThT intensity and the higher the amount of αS remained in the soluble fraction (Fig. 2a–d, Supplementary Fig. 4a, b). […] It is important to note that NS41 contains a carboxyl (COOH) functional group side chain. […] We have also shown in that work that the foldamer binds to the N-terminus of αS because of its negatively charged COOH functional group interaction with the positively charged lysine residues of αS[24]. […] Additionally, we have also shown that the OPs with the COOH functional group are very effective inhibitors of aggregation of other amyloid proteins that contain lysine amino acid via the formation of salt bridges[30]–[34].
An αS solution (100 µM) was prepared in PBS with or without ligands and shaken ([…], 37 °C) until the fluorescence plateaued, as observed using the ThT aggregation assay, indicative of the aggregation of αS as a control (four days for most experiments unless otherwise mentioned). The solutions were separated into soluble and insoluble fractions by centrifugation at 22,000 × g for 20 min. The fractions were diluted in 2×Laemmli protein sample loading buffer (Containing 2.1% SDS, Bio-rad, Hercules, CA), boiled at 95 °C for 5 min, and ran on a 12% Mini-PROTEAN precast protein gel (Bio-rad, Hercules, CA). The gel was visualized using ChemiDoc MP Imaging System (Bio-rad, Hercules, CA) and band intensity was quantified using Image Lab image acquisition and analysis software (Bio-rad, Hercules, CA). Densitometry values were averaged from three technical replicates and reported with the error bars representing their standard deviations.

[1] = target: T2, αS monomer-αS fibers interaction (Homo sapiens, UniProt P37840); test: HSQC NMR of 15N-αS monomer with αS fibers with or without NS132; assay type: binding; conditions: 70 μM 15N-αS + αS fibers, equimolar NS132, 24 h
T2 construct: purchased rpeptide, Bogart, GA
Experimental: We also employed 2D NMR HSQC for atomic-level insights into fibers-catalyzed aggregation of αS and its inhibition by NS132. […] We have also shown that NS132 specifically interacts with the N-terminal residues of αS. […] We incubated preformed fibers of αS with 70 μM ^15N-^1H-uniformly labeled αS monomer and used HSQC NMR to characterize the kinetics of fibers-catalyzed aggregation of αS on a molecular level. […] Also, αS fibers interact specifically with four αS sequences on the N-terminus, including residues 3-23, 40-45, 49-59, and 75-84 (Fig. 4b,c). There was an induction of a secondary structure in the αS monomer, indicated by the spreading of the amide peaks toward the ^1H resonances (Fig. 4c, green). […] Even after 40 h, there were fewer and smaller changes in the volume intensity of the amide peaks of ^15N-^1H-uniformly labeled αS monomer in the presence of NS132 (Fig. 4f).
For the HSQC experiments titrating NS132 into ^15N αS, the same experimental conditions were used as above. Incrementally, NS132 was added to a single ^15N αS solution, mixed, kept at r.t. for 10 min and HSQC was recorded under the conditions stated above. For HSQC experiments containing pre-formed fibrils (PFF) of αS, 5.4 eq. of PFF solution (500 μM) was added to monomeric ^15N αS solution, and the spectra was recorded as previously stated.

Cc1ccc(NC(=O)c2ccc(NC(=O)c3ccc([N+](=O)[O-])c(NCCc4c[nH]c5ccccc45)n3)c(NCC3CCCCC3)n2)c(OCC(=O)O)n1 [NS132]
amount of αS in the insoluble fraction (αS aggregation; 100 µM αS, four days, equimolar): 14% and 11%
Total (αS, SDS-PAGE gel shift), Average (αS aggregation; NS132 0.2 eq.): 1.493
Total (αS, SDS-PAGE gel shift), Trial 1-3 (αS aggregation; NS132 0.2 eq., individual trials, Synuclein alone total ~1): 1.48 and 1.6 and 1.4
Total (αS, SDS-PAGE gel shift), Average (αS aggregation; NS132 1.0 eq.): 1.161
Total (αS, SDS-PAGE gel shift), Trial 1-3 (αS aggregation; NS132 1.0 eq., individual trials): 1.099 and 1.145 and 1.24
αS band intensity, Total, Average (αS aggregation; sheet S7B): 99.9667
αS band intensity, Total (αS aggregation; sheet S7B, individual trials): 92.4 and 101.3 and 106.2
distribution of αS between soluble and insoluble fraction, in words (αS aggregation; substoichiometric ratio αS:ligand 1:0.5): predominantly detected in the soluble fraction
change in the volume of the amide peaks of 15N-αS monomer with αS fibers, in words [1]: no significant change
